Data published in patent US9809562B2, “NAT10 modulators for treating or preventing laminopathies, aging and cancer” (CAMBRIDGE ENTERPRISE LIMITED, priority 2014, dated 2017).
Structures can show the parent of a compound that is named as a salt. Where two headings read alike, the source gives them in different places.

What was measured:
[1] = Pharmacokinetics assay of Remodelin in mice; assay type: in vivo; settings: ICR mice; for half-life: read-out: half-life (T½) (converted)
Protocol: FIG. 17: Pharmacokinetics assay of Remodelin in mice. A) The pharmacokinetics of Remodelin was evaluated in ICR mice following IV at 1 mg/kg and PO at 5 mg/kg dose level. […] B) Details of the results obtained in the curves shown in A).

HGPS cells [2] = experiment: Chromatin, nucleolar and SUN1 organization in HGPS cells (IF); assay type: cell-based, human; settings: Remodelin 1 μM
Protocol: The following KAT and KDAC inhibitors were used in the nuclear shape rescue screen, incubating cells with the molecules for 16 hours: trichostatin A (1 μM), sodium butyrate (5 mM), tubacin (10 μM), SAHA (5 μM), curcumin (10 μM), garcinol (50 μM), anacardic acid (1 μM), MB-3 (5 μM), 4-(4-chlorophenyl)-2-(2-cyclopentylidenehydrazinyl)thiazole (Compound 2) (50 μM), 4-(4-chlorophenyl)-2-(2-cyclopentylidene-1-(prop-2-yn-1-yl)hydrazinyl)thiazole (Compound 3) (50 μM) and cyclopentylidene-[4-(4-cyanophenyl)thiazol-2-yl)hydrazine (Compound 1) (Remodelin) (10 to 50 μM). For HGPS cellular fitness assays, Remodelin was incubated at 1 μM for 1 to 10 days, renewing the medium every 3 days. For long-term senescence assay, cells were kept and passaged in medium containing 1 μM Remodelin or DMSO only for 12 population doublings. Senescence was assessed after 8 days of Remodelin treatment when cells were at Population Doubling 12, and then after several weeks of Remodelin treatment, when cells reached Population Doubling 24 using the Senescence β-Galactosidase Staining Kit #9860 from Cell Signaling. Nocodazole, colchicine and latrunculin A (Sigma-Aldrich) were used at 200 ng/ml, 1 μg/ml and 1 μM respectively. Aphidicolin (Sigma-Aldrich) was used at 5 μg/ml for 16 h. Farnesyltransferase inhibitor FTI-277 was purchased from Tocris Bioscience and used at 5 μM. […]

HGPS cells [3] = experiment: EdU incorporation by flow cytometry in HGPS cells; assay type: cell-based, human; settings: 2 hours EdU
Protocol: 10 μM EdU was incubated for 2 hours when indicated. Cells were fixed in 4% paraformaldehyde (Sigma-Aldrich). EdU was fluorescently labeled using the Click-iT® EdU Flow Cytometry Assay Kit (Life Sciences). DNA was stained with […] propidium iodide (Sigma-Aldrich) in phosphate buffer solution (PBS) containing 0.1% Triton-X-100 and 0.5 mg ml^−1 DNase free RNase A (Sigma-Aldrich). Samples were processed on a FACSCalibur flow cytometer equipped with CellQuest software (Becton Dickinson). Results were analysed using FlowJo software (TreeStar).

HGPS AG11498 cells = experiment: Senescence-associated β-galactosidase in HGPS cells; assay type: cell-based, human
Protocol: The following KAT and KDAC inhibitors were used in the nuclear shape rescue screen, incubating cells with the molecules for 16 hours: trichostatin A (1 μM), sodium butyrate (5 mM), tubacin (10 μM), SAHA (5 μM), curcumin (10 μM), garcinol (50 μM), anacardic acid (1 μM), MB-3 (5 μM), 4-(4-chlorophenyl)-2-(2-cyclopentylidenehydrazinyl)thiazole (Compound 2) (50 μM), 4-(4-chlorophenyl)-2-(2-cyclopentylidene-1-(prop-2-yn-1-yl)hydrazinyl)thiazole (Compound 3) (50 μM) and cyclopentylidene-[4-(4-cyanophenyl)thiazol-2-yl)hydrazine (Compound 1) (Remodelin) (10 to 50 μM). For HGPS cellular fitness assays, Remodelin was incubated at 1 μM for 1 to 10 days, renewing the medium every 3 days. For long-term senescence assay, cells were kept and passaged in medium containing 1 μM Remodelin or DMSO only for 12 population doublings. Senescence was assessed after 8 days of Remodelin treatment when cells were at Population Doubling 12, and then after several weeks of Remodelin treatment, when cells reached Population Doubling 24 using the Senescence β-Galactosidase Staining Kit #9860 from Cell Signaling. Nocodazole, colchicine and latrunculin A (Sigma-Aldrich) were used at 200 ng/ml, 1 μg/ml and 1 μM respectively. Aphidicolin (Sigma-Aldrich) was used at 5 μg/ml for 16 h. Farnesyltransferase inhibitor FTI-277 was purchased from Tocris Bioscience and used at 5 μM. ATMi (KU55933) and ATRi (ATR-45) were obtained from Tocris Bioscience and from the Ohio State University respectively and used at 10 μM and 500 nM. Pifithrin alpha (Sigma-Aldrich) was used at 10 μM.

[4] = system: HGPS mice (Lmna^G609G/G609G); experiment: Survival in mouse model of Hutchinson Gilford progeria syndrome; assay type: in vivo; settings: daily oral dose of 100 mg/kg/day from 3 weeks of age, vs vector only, n=10
Protocol: Middle panel of FIG. 25: HGPS mice were treated with a daily oral dose of 100 mg/kg/day of Compound 2 from 3 weeks of age and until culled due to >20% body weight loss. […] Right panel of FIG. 25: Global survival of HGPS mice (Lmna^G609G/G609G) treated with vector only (Lmna^G609G/G609G V) or with Compound 2 (Lmna^G609G/G609G2) showing a significant increase of the median survival of mice upon Compound 2 treatment (+25%). Number of mice/group n=10.

| Structure (SMILES) | Oral exposure (AUC0-∞) ([1]; PO 5 mg/kg) [ng·h/mL] | clearance ([1]; mouse, plasma, IV 1 mg/kg) [mL/min/kg] | half-life ([1]; mouse, plasma, IV 1 mg/kg) [min] | Tmax ([1]; mouse, plasma, PO 5 mg/kg) [min] | bioavailability ([1]; mouse, plasma, PO 5 mg/kg vs IV 1 mg/kg) [%] | half-life ([1]; mouse, plasma, PO 5 mg/kg) [min] | Cmax ([1]; mouse, plasma, PO 5 mg/kg, read-out: maximum plasma concentration (Cmax)) [ng/mL] | SUN1 accumulation at the nuclear envelope (HGPS cells [2]) | chromatin and nucleolar organization (H3K9me3 and NAT10 staining) (HGPS cells [2]) | DNA replication (EdU incorporation) (HGPS cells [3]) | long-term senescence of HGPS cells (HGPS AG11498 cells; 1 μM Remodelin, several weeks, 12 cell divisions (PDL 24)) | senescence of HGPS cells (β-galactosidase positive cells) (HGPS AG11498 cells; HGPS AG11498, Remodelin 1 μM, Pifithrin alpha 10 μM) | increase of the median survival [4] |
| --- | --- | --- | --- | --- | --- | --- | --- | --- | --- | --- | --- | --- | --- |
| N#Cc1ccc(-c2csc(NN=C3CCCC3)n2)cc1 [Compound 1, 4-(4-Cyanophenyl)-2-(2-cyclopentylidenehydrazinyl)thiazole] | 259 | 139 | 54.9 | 15 | 43.5 | 109 | 409 | decreased SUN1 accumulation at the nuclear envelope | improved chromatin and nucleolar organization | improved DNA replication | prevented HGPS cell senescence even after several weeks of treatment | decreased senescence |  |
| Clc1ccc(-c2csc(NN=C3CCCC3)n2)cc1 [Compound 2, 4-(4-Chlorophenyl)-2-(2-cyclopentylidenehydrazinyl)thiazole Hydrochloride Salt] |  |  |  |  |  |  |  |  |  |  |  |  | +25% |
